Eight sequences from US11789029B2, “Temporal traumatic brain injury biomarkers and methods of use thereof” (ARIZONA BOARD OF REGENTS ON BEHALF OF ARIZONA STATE …, priority 2019, dated 2023) can be followed below.

One experiment deals with CCI injury sections. Description: Immunohistochemistry of biotinylated HCDR3 constructs on CCI injury sections. Type of experiment: binding, mice. To be noted: for bioreactivity of control HCDR3 constructs on injured neural tissue: injured tissue at 1 or 7 days post-injury; for bioreactivity of chronic injury targeting HCDR3 constructs: 21 dpi tissue sections, 5 μM construct, Triton-X permeabilization. As to the method: Mice were subject to CCI or sham (n=3 per group/sex) as described previously and perfused with 0.1 M phosphate buffer and 4% paraformaldehyde at specified timepoints. Brains were fixed overnight in 4% paraformaldehyde at 4° C. followed by immersion in 15% sucrose and then 30% sucrose. Brains were flash frozen on dry ice in optimal cutting temperature medium and stored at −80° C. Samples were sectioned coronally at 20 μm thickness.
Tissue sections were incubated with excess streptavidin and biotin to block endogenous biotin using an Endogenous Biotin blocking kit (Thermo Fisher Scientific). After permeabilization with either 0.2% Triton-X 100 or Tween-20, 5 μM of biotinylated HCDR3-construct was incubated on tissue overnight at 4° C. Simultaneously, sections that served as controls were incubated with control HCDR3-construct or 1×PBS. Tissue sections were washed in 1×PBS and incubated with Alexa Fluor 555 streptavidin at room temperature for 2 hours, followed by 1×PBS washes and DAPI incubation for 5 minutes. Slides were imaged using fluorescence microscopy with Leica software.
For NGS analysis, raw counts were first normalized to reads per million (RPM) to account for library differences. A normalized z-score was then used as a threshold to identify dAbs that were highly represented and specific to their distinct injury timepoint. Selected dAbs were then screened for enrichment factor and individual frequency. Fluorescence percentage per area was conducted with ordinary one way ANOVA followed by Dunnett's test for multiple comparisons. Statistical significance was determined as p<0.05. Identified proteins that met the false discovery rate (FDR) threshold of <0.01 were used in all ontological assessments to categorize biological processes and candidate pathways.

Experiment [1] concerns the target T1, citrate synthase, mitochondrial (Mus musculus, UniProt Q9CZU6).
T1 construct: The ipsilateral hemisphere of the brain was immediately dissected and homogenized in chilled lysis buffer; from tissue; host or cells: ipsilateral brain hemisphere lysate of CCI or sham mice
T1 sequence (Q9CZU6 28-464): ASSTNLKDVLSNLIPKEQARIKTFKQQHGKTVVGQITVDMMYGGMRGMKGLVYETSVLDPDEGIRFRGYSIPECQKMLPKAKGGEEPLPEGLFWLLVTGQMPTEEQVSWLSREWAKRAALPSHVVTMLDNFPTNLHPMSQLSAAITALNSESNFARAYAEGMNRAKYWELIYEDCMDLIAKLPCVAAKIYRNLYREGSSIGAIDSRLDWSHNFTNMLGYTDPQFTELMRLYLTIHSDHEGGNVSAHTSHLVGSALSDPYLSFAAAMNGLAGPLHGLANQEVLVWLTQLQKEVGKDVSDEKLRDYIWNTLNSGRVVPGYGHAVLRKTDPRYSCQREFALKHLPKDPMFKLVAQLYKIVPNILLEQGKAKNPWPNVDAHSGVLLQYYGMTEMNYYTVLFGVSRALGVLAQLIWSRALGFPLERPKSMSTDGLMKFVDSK
Description: Immunoprecipitation-mass spectrometry, candidate protein. Type of experiment: binding. The source says:
(§1) CCI and sham surgeries were completed as described previously. Mice were sacrificed at 1 d, 7 d, or 21 d post-injury (n=3/group) via transcardial perfusion with phosphate buffer, pH 7.4. The ipsilateral hemisphere of the brain was immediately dissected and homogenized in chilled lysis buffer (1×PBS, 1% Triton, protease inhibitor cocktail). Protein concentration of the homogenates was quantified with the Pierce BCA Protein Assay Kit (Thermo Fisher).
(§2) Streptavidin-coupled Dynabeads (Thermo Fisher) were washed with 1×PBST with 0.1% Tween and incubated with 1 mg/mL tissue lysate for 1 hour at room temperature. Pre-cleared lysate was collected after separation from magnetic beads and incubated with 450 pmol of HCDR3-construct rotating overnight at 4° C. to form the immune complex. The immune complex was then incubated with Streptavidin-coupled Dynabeads for 1 hour at room temperature before antigen was eluted from beads by heating sample at 95° C. with SDS PAGE running buffer. Samples were run on a pre-cast 12% SDS-PAGE gel (Bio-Rad) and bands were excised. Gel bands were processed by ASU Biodesign Mass Spectrometry Facility for digestion and protein identification with the Thermo Orbitrap Fusion Lumos (Thermo Fisher).
(§3) UniProt IDs of identified proteins were uploaded to the PANTHER classification system and searched against the Mus musculus reference database. Ontological assessments to characterize cellular localization, molecular function, biological processes, and pathways were conducted with PANTHER Overrepresentation test (Fisher's Exact test, p<0.05 using Benjamini Hochberg False Discovery Rate correction) with the GO Ontology database (released 2019-10-08).

In experiment [2] the target is T2, Succinate--CoA ligase [ADP-forming] subunit beta, mitochondrial (Mus musculus, UniProt Q9Z2I9).
T2 construct: The ipsilateral hemisphere of the brain was immediately dissected and homogenized in chilled lysis buffer; from tissue; host or cells: ipsilateral brain hemisphere lysate of CCI or sham mice
The experiment is described as above. Type of experiment: binding.
Text: as §1, §2, §3

The next experiment has as its system tissue lysates. Description: Immunoprecipitation-mass spectrometry with HCDR3 constructs as capture antibodies. To be noted: A2 with 1 dpi tissue lysates, SA1 with 7 dpi tissue lysates. The class given is binding, Mus musculus.
Text: as §1, §2
UniProt IDs of identified proteins were uploaded to the PANTHER classification system and searched against the Mus musculus reference database. […]

Experiment [3] deals with T3, Heat shock cognate 71 kDa protein (Mus musculus, UniProt P63017).
T3 construct: The ipsilateral hemisphere of the brain was immediately dissected and homogenized in chilled lysis buffer; from tissue; host or cells: ipsilateral brain hemisphere lysate of CCI or sham mice
In words: Immunoprecipitation-mass spectrometry, candidate protein. The class given is binding.
Text: as §1, §2, §3

Experiment [4] deals with T4, Endoplasmic reticulum chaperone BiP (Mus musculus, UniProt P20029).
T4 construct: The ipsilateral hemisphere of the brain was immediately dissected and homogenized in chilled lysis buffer; from tissue; host or cells: ipsilateral brain hemisphere lysate of CCI or sham mice
The experiment is described as above. The class given is binding.
Text: as §1, §2, §3

Entries after “also recorded” stand apart in the source; their conditions may differ. No end group written: not given here. bromoacetamide scaffold = not defined here

T3 sequence (P63017 whole entry): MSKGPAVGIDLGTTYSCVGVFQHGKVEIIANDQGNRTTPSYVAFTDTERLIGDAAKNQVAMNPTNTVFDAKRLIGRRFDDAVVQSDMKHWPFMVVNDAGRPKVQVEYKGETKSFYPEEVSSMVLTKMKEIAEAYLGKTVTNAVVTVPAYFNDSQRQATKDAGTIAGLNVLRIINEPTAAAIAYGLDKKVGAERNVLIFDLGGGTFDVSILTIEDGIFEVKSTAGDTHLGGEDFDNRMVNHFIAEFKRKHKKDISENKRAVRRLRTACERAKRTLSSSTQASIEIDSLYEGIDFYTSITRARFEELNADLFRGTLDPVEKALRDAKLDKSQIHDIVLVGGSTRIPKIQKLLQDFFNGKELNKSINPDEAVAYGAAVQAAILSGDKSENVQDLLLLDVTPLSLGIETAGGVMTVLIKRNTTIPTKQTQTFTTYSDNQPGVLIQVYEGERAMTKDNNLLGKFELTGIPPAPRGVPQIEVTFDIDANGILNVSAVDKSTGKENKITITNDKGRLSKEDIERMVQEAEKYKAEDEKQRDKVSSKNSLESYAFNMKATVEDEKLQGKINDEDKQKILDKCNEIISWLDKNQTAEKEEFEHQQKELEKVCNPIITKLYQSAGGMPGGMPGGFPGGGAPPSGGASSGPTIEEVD
T4 sequence (P20029 20-655): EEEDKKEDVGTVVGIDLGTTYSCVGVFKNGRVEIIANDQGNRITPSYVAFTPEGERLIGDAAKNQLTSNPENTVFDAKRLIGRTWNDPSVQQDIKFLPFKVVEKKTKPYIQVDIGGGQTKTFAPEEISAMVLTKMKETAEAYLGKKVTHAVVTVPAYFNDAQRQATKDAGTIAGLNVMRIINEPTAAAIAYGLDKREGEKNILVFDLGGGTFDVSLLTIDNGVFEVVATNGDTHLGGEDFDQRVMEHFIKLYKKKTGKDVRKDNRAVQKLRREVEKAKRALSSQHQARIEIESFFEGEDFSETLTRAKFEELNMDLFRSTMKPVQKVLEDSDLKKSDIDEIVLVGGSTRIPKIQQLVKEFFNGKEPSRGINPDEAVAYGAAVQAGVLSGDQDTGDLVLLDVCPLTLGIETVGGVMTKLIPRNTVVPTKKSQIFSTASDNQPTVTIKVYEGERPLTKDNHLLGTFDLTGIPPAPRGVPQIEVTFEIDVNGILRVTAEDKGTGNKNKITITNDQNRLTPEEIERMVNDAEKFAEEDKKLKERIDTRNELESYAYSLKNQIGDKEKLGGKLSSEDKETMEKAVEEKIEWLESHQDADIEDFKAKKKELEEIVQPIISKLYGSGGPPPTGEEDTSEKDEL
T2 sequence (Q9Z2I9 54-463): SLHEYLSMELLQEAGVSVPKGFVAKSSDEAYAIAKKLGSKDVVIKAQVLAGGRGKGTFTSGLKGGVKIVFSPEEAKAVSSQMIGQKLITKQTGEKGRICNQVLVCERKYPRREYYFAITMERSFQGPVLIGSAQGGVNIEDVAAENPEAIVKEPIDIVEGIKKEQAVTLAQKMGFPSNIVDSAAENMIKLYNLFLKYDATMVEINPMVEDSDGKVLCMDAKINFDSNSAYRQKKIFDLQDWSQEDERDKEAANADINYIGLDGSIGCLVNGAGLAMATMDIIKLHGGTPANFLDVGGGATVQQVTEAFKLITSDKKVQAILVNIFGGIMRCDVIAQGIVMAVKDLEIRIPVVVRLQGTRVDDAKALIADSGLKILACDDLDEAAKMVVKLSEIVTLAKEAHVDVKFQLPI
T2 sequence (Q9WUM5 35-346 partner): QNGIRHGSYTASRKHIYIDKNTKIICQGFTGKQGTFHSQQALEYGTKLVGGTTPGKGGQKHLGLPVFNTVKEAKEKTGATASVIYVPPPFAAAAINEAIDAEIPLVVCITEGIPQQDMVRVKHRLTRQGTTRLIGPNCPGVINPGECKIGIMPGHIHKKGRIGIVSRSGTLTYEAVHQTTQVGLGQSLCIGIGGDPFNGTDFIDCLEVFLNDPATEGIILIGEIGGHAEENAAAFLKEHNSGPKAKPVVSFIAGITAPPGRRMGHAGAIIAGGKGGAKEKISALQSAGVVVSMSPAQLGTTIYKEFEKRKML

For the sequence “GGDTFRDASQSMHF [dAb-CDR3, reference compound]”, the “bioreactivity of control HCDR3 constructs on injured neural tissue” value in the experiment with CCI injury sections was “no detectable bioreactivity”.
Still for that read-out and setting: then “GPLDGKEEELRF [SP-CDR3, reference compound]”, with “no detectable bioreactivity”.
On to RLVRESSQEHTLSS [CH1, 5, chronic injury], for which the “bioreactivity of chronic injury targeting HCDR3 constructs” value with CCI injury sections is “negligible bioreactivity”.
Take “SLYGSSRHTAPISF (linker (positions not given here) via bromoacetamide scaffold; not fully specified; reading uncertain; also: cyclized on bromoacetamide scaffold with biotin, sites not given here) [A2, 2, acute stage; peptide cyclized on bromoacetamide scaffold containing biotin]”: the “# Peptides” value in experiment [1] came out at 3; in experiment [2], 4. Also, the “sensitivity and affinity to the peri-injury region” value in the experiment on CCI injury sections (1 day post-injury compared to sham, subacute, and chronic tissue sections) was “high sensitivity and affinity”. For the same sequence, in the experiment on CCI injury sections (in comparison to sham (p=0.0120) and 7 days post-injury tissue (p=0.0221)), the “bioreactivity determined by the fluorescence on 1 dpi tissue” value is given as “significant bioreactivity”. The “bioreactivity, 1 days post-injury versus 21 days post injury tissue” value in the experiment on CCI injury sections (p=0.0658) is “No significant differences”. For the same sequence, the “immunoprecipitation eluate separated by SDS-PAGE” value with tissue lysates is “isolated proteins unique to the injury condition”.
“TAERDARTFQY (linker (positions not given here) via bromoacetamide scaffold; not fully specified; reading uncertain; also: cyclized on bromoacetamide scaffold with biotin, sites not given here) [A1, 1, acute stage; peptide cyclized on bromoacetamide scaffold containing biotin]”: the “IHC signal on injured tissue” value in the experiment on CCI injury sections (fixed mouse brain tissue at 1 dpi) is on record as “no detectable signal; also recorded: did not show detectable bioreactivity”.
As to TDCQETPYELKS [CH2, 6, chronic injury], the “bioreactivity of chronic injury targeting HCDR3 constructs” value with CCI injury sections is on record as “non-specific staining”.
On to “TDLAVAHPVRY (linker (positions not given here) via bromoacetamide scaffold; not fully specified; reading uncertain; also: cyclized on bromoacetamide scaffold with biotin, sites not given here) [SA1, 3, subacute stage; peptide cyclized on bromoacetamide scaffold containing biotin]”, for which the “# Peptides” value in experiment [3] and in experiment [4] was 6 each time. Further, in the experiment with CCI injury sections (7 days post-injury tissue), the “stain in the peri-injury region of injured tissue” value is listed as “Positive stain; also recorded: positively binding”. For the same sequence, the “bioreactivity, 7 days post-injury versus 1 days post-injury or 21 days post-injury tissue” value with CCI injury sections (p=0.0993 (1 dpi), p=0.0780 (21 dpi)) is listed as “No significant differences”. For the same sequence, the “localization of stain in sham brain sections” value in the experiment with CCI injury sections (sham brain sections, p=0.0079 versus 7 days post-injury) is given as “not observed”. Moreover, in the experiment with tissue lysates, the “immunoprecipitation eluate separated by SDS-PAGE” value is recorded as “isolated proteins unique to the injury condition”.
As to “TGHEGENEMAS [HE-CDR3, reference compound]”, the “bioreactivity of control HCDR3 constructs on injured neural tissue” value in the experiment with CCI injury sections is “no detectable bioreactivity”.
